In patent US20140296338A1, “PROPHYLACTIC AND/OR THERAPEUTIC AGENT FOR CARDIOVASCULAR COMPLICATIONS OF DIABETES” (priority 2011, published 2014):

Test system: dermal fibroblast
Assay: Influence of fatty acids on intracellular neutral lipid content of dermal fibroblast from diabetic patient, enzyme assay
Type: cell-based, human
Parameters: Intracellular TG-decreasing activity: scale not given here
Settings: for Intracellular TG-decreasing activity: based on part of the results in FIG. 4 and FIG. 5; for Activity to decrease intracellular TG: comparison of medium-chain fatty acids (FIG. 5); for Intracellular TG (neutral lipid) content: fatty acid added at 50 and 500 μM, cells collected 2 days later, versus no fatty acid (FIG. 4)
Description: With the consent of the diabetic patient in Example 3, part of dermal tissue was harvested and was then subjected to primary culture (culture medium: DMEM/10% FBS) by Explant method, followed by repeated subculture to give a cell line. The resulting dermal fibroblast was examined for the influence of various fatty acids on an intracellular neutral lipid content. Specifically, the dermal specimen harvested from the patient was subjected to an in vitro enzyme assay using various fatty acids to measure an intracellular neutral lipid content. The enzyme assay was performed using a triglyceride quantification kit (manufacturer: BioVision, Inc., product code: K622-100). […] To the patient's cells, the various fatty acids were added, and 2 days later, the cells were collected. In the figures, (-) is a specimen to which no fatty acid was added (cultured as a control in DMEM/10% FBS alone). C16:0 is palmitic acid, C18:1 is oleic acid, C18:2 is linoleic acid, C20:4 is arachidonic acid, C20:5 is eicosapentaenoic acid (EPA), C7:0 is heptanoic acid, C8:0 is caprylic acid, and C10:0 is capric acid.

Activity to decrease intracellular TG | Intracellular TG (neutral lipid) content | SMILES | Intracellular TG-decreasing activity
great activity to decrease TG | – | CC(C)CCCCCCC(=O)O [8-methylnonanoic acid] | 100
– | – | CCCCCCCC(=O)O [caprylic acid] | 5
great activity to decrease TG | decreased | CCCCCCCCCC(=O)O [capric acid] | 100
– | increased | CCCCCCC(=O)O [heptanoic acid, reference compound] | 0
